The record followed here is ChEMBL document CHEMBL5108027, “An unanticipated discovery of novel naphthalimidopropanediols as potential broad-spectrum antibacterial members” (Eur J Med Chem, 2022).

Converted amounts (≈) assume the structure as drawn.

Holding throughout (format): functional
In test [1] the test system is Staphylococcus aureus. As to the kind of experiment: Antibacterial activity against methicillin-resistant Staphylococcus aureus N315 measured by Muller-Hinton broth based microdilution assay. For orientation: Broth dilution looks for growth in wells or tubes with falling amounts of substance.
In a further test the test system is Enterococcus faecalis. As to the kind of experiment: Antibacterial activity against Enterococcus faecalis measured by Muller-Hinton broth based microdilution assay.
Test [2] deals with Staphylococcus aureus. Put plainly: Antibacterial activity against Staphylococcus aureus measured by Muller-Hinton broth based microdilution assay.
In test [3] the test system is Staphylococcus aureus. Put plainly: Antibacterial activity against Staphylococcus aureus ATCC 25923 measured by Muller-Hinton broth based microdilution assay.
Test [4] has as its system Staphylococcus aureus. Put plainly: Antibacterial activity against Staphylococcus aureus ATCC 29213 measured by Muller-Hinton broth based microdilution assay.
The test system of another test is Klebsiella pneumoniae. Put plainly: Antibacterial activity against Klebsiella pneumoniae measured by Muller-Hinton broth based microdilution assay.
For test [5], the system named is Escherichia coli. As to the kind of experiment: Antibacterial activity against Escherichia coli measured by Muller-Hinton broth based microdilution assay.
In test [6] the test system is Pseudomonas aeruginosa. Put plainly: Antibacterial activity against Pseudomonas aeruginosa measured by Muller-Hinton broth based microdilution assay.
The test system of the next test is Acinetobacter baumannii. As to the kind of experiment: Antibacterial activity against Acinetobacter baumannii measured by Muller-Hinton broth based microdilution assay.
Test [7] relates to Pseudomonas aeruginosa. Put plainly: Antibacterial activity against Pseudomonas aeruginosa ATCC 27853 measured by Muller-Hinton broth based microdilution assay.
Test [8] concerns Escherichia coli. As to the kind of experiment: Antibacterial activity against Escherichia coli ATCC 25922 measured by Muller-Hinton broth based microdilution assay.

In general, MIC refers to the least concentration at which growth counts as inhibited. Read a low MIC as inhibition by little substance. As to `O=C1c2cccc3c(N/N=C/c4ccc(O)c([N+](=O)[O-])c4)ccc(c23)C(=O)N1C(CO)CO`, the MIC amounted to 64 µg/mL (≈ 142 µM) with Staphylococcus aureus [1]; 16 µg/mL (≈ 35.5 µM) in the test with Enterococcus faecalis; 4 µg/mL (≈ 8.88 µM) against Staphylococcus aureus [2]; 4 µg/mL (≈ 8.88 µM) in the test on Staphylococcus aureus [3]; 8 µg/mL (≈ 17.8 µM) in the test with Staphylococcus aureus [4]; 4 µg/mL (≈ 8.88 µM) in the test with Klebsiella pneumoniae. Besides, the MIC in the test on Escherichia coli [5] came to 32 µg/mL (≈ 71 µM); in the test with Pseudomonas aeruginosa [6] it was 32 µg/mL (≈ 71 µM); with Acinetobacter baumannii, 32 µg/mL (≈ 71 µM); in the test with Pseudomonas aeruginosa [7] it was 8 µg/mL (≈ 17.8 µM); against Escherichia coli [8] it was 32 µg/mL (≈ 71 µM).
On to `O=C1c2cccc3c(N/N=C/c4ccc(O)cc4O)ccc(c23)C(=O)N1C(CO)CO`, for which the MIC against Staphylococcus aureus [1] is 16 µg/mL (≈ 38 µM); against Enterococcus faecalis, 16 µg/mL (≈ 38 µM); against Staphylococcus aureus [2] it was 16 µg/mL (≈ 38 µM); in the test on Staphylococcus aureus [3] it was 16 µg/mL (≈ 38 µM); in the test with Staphylococcus aureus [4], 64 µg/mL (≈ 152 µM); against Klebsiella pneumoniae, 4 µg/mL (≈ 9.49 µM). The MIC against Escherichia coli [5] worked out at 64 µg/mL (≈ 152 µM); against Pseudomonas aeruginosa [6] it was 64 µg/mL (≈ 152 µM); in the test with Acinetobacter baumannii it was 64 µg/mL (≈ 152 µM); in the test with Pseudomonas aeruginosa [7] it was 32 µg/mL (≈ 75.9 µM); against Escherichia coli [8], 32 µg/mL (≈ 75.9 µM).
Turning to `CCn1cc(/C=N/Nc2ccc3c4c(cccc24)C(=O)N(C(CO)CO)C3=O)c2ccccc21`, the MIC in the test on Staphylococcus aureus [1] was 64 µg/mL (≈ 140 µM); in the test with Enterococcus faecalis, 32 µg/mL (≈ 70.1 µM); in the test on Staphylococcus aureus [2], 8 µg/mL (≈ 17.5 µM); against Staphylococcus aureus [3] it was 16 µg/mL (≈ 35 µM); against Staphylococcus aureus [4], 32 µg/mL (≈ 70.1 µM); against Klebsiella pneumoniae, 8 µg/mL (≈ 17.5 µM). Besides, the minimal inhibitory concentration (MIC) turned out to be 16 µg/mL (≈ 35 µM) in the test on Escherichia coli [5]; 16 µg/mL (≈ 35 µM) in the test with Pseudomonas aeruginosa [6]; 64 µg/mL (≈ 140 µM) against Acinetobacter baumannii; 32 µg/mL (≈ 70.1 µM) with Pseudomonas aeruginosa [7]; 32 µg/mL (≈ 70.1 µM) in the test on Escherichia coli [8].
For `O=C(O)c1cn(C2CC2)c2cc(N3CCNCC3)c(F)cc2c1=O` [CIPROFLOXACIN], the MIC in the test with Staphylococcus aureus [1] came to 4 µg/mL (≈ 12.1 µM); against Enterococcus faecalis, 2 µg/mL (≈ 6.04 µM); against Staphylococcus aureus [2], 2 µg/mL (≈ 6.04 µM); in the test with Staphylococcus aureus [3], 0.5 µg/mL (≈ 1.51 µM); against Staphylococcus aureus [4], 8 µg/mL (≈ 24.1 µM); against Klebsiella pneumoniae, 2 µg/mL (≈ 6.04 µM). This compound yielded an MIC with Acinetobacter baumannii of 2 µg/mL (≈ 6.04 µM).
Turning to `O=C1c2cccc3c(N/N=C/c4cccs4)ccc(c23)C(=O)N1C(CO)CO`, the MIC in the test with Staphylococcus aureus [1] turned out to be 4 µg/mL (≈ 10.1 µM); in the test with Enterococcus faecalis it was 16 µg/mL (≈ 40.5 µM); in the test with Staphylococcus aureus [2], 64 µg/mL (≈ 162 µM); against Staphylococcus aureus [3] it was 64 µg/mL (≈ 162 µM); with Staphylococcus aureus [4] it was 8 µg/mL (≈ 20.2 µM); against Klebsiella pneumoniae, 4 µg/mL (≈ 10.1 µM). Also, the MIC against Escherichia coli [5] is 32 µg/mL (≈ 80.9 µM); with Pseudomonas aeruginosa [6], 64 µg/mL (≈ 162 µM); with Acinetobacter baumannii it was 64 µg/mL (≈ 162 µM); with Pseudomonas aeruginosa [7], 32 µg/mL (≈ 80.9 µM); with Escherichia coli [8] it was 32 µg/mL (≈ 80.9 µM).
For `O=C1c2cccc3c(N/N=C/c4ccc([N+](=O)[O-])cc4)ccc(c23)C(=O)N1C(CO)CO`, the MIC against Staphylococcus aureus [1] came to 64 µg/mL (≈ 147 µM); in the test on Enterococcus faecalis it was 1 µg/mL (≈ 2.3 µM); with Staphylococcus aureus [2], 2 µg/mL (≈ 4.6 µM); in the test with Staphylococcus aureus [3] it was 2 µg/mL (≈ 4.6 µM); in the test on Staphylococcus aureus [4], 64 µg/mL (≈ 147 µM); in the test with Klebsiella pneumoniae, 32 µg/mL (≈ 73.7 µM). For the same compound, the minimal inhibitory concentration (MIC) against Escherichia coli [5] came out at 32 µg/mL (≈ 73.7 µM); against Pseudomonas aeruginosa [6], 16 µg/mL (≈ 36.8 µM); in the test with Acinetobacter baumannii, 64 µg/mL (≈ 147 µM); against Pseudomonas aeruginosa [7], 16 µg/mL (≈ 36.8 µM); against Escherichia coli [8], 32 µg/mL (≈ 73.7 µM).
As to `O=C1c2cccc3c(N/N=C/c4ccncc4)ccc(c23)C(=O)N1C(CO)CO`, the minimal inhibitory concentration (MIC) is 64 µg/mL (≈ 164 µM) against Staphylococcus aureus [1]; 64 µg/mL (≈ 164 µM) with Enterococcus faecalis; 4 µg/mL (≈ 10.2 µM) against Staphylococcus aureus [2]; 64 µg/mL (≈ 164 µM) against Staphylococcus aureus [3]; 128 µg/mL (≈ 328 µM) in the test with Staphylococcus aureus [4]; 64 µg/mL (≈ 164 µM) with Klebsiella pneumoniae. The minimum inhibitory concentration (MIC) was 32 µg/mL (≈ 82 µM) against Escherichia coli [5]; 2 µg/mL (≈ 5.12 µM) against Pseudomonas aeruginosa [6]; 64 µg/mL (≈ 164 µM) with Acinetobacter baumannii; 1 µg/mL (≈ 2.56 µM) in the test with Pseudomonas aeruginosa [7]; 64 µg/mL (≈ 164 µM) against Escherichia coli [8].
Consider `Cc1ccc(/C=N/Nc2ccc3c4c(cccc24)C(=O)N(C(CO)CO)C3=O)cc1`, for which the minimum inhibitory concentration (MIC) against Staphylococcus aureus [1] came out at 16 µg/mL (≈ 39.7 µM); in the test on Enterococcus faecalis, 64 µg/mL (≈ 159 µM); against Staphylococcus aureus [2] it was 0.5 µg/mL (≈ 1.24 µM); against Staphylococcus aureus [3], 32 µg/mL (≈ 79.3 µM); against Staphylococcus aureus [4] it was 4 µg/mL (≈ 9.91 µM); in the test with Klebsiella pneumoniae it was 8 µg/mL (≈ 19.8 µM). Further, the MIC against Escherichia coli [5] was found to be 64 µg/mL (≈ 159 µM); in the test with Pseudomonas aeruginosa [6] it was 64 µg/mL (≈ 159 µM); against Acinetobacter baumannii, 64 µg/mL (≈ 159 µM); with Pseudomonas aeruginosa [7], 1 µg/mL (≈ 2.48 µM); against Escherichia coli [8] it was 32 µg/mL (≈ 79.3 µM).
Turning to `O=C1c2cccc3c(N/N=C/c4ccc5ccccc5n4)ccc(c23)C(=O)N1C(CO)CO`, the minimum inhibitory concentration (MIC) stood at 2 µg/mL (≈ 4.54 µM) in the test with Staphylococcus aureus [1]; 64 µg/mL (≈ 145 µM) with Enterococcus faecalis; 4 µg/mL (≈ 9.08 µM) against Staphylococcus aureus [2]; 64 µg/mL (≈ 145 µM) in the test on Staphylococcus aureus [3]; 128 µg/mL (≈ 291 µM) against Staphylococcus aureus [4]; 32 µg/mL (≈ 72.7 µM) with Klebsiella pneumoniae. The MIC is 4 µg/mL (≈ 9.08 µM) against Escherichia coli [5]; 2 µg/mL (≈ 4.54 µM) with Pseudomonas aeruginosa [6]; 64 µg/mL (≈ 145 µM) against Acinetobacter baumannii; 8 µg/mL (≈ 18.2 µM) against Pseudomonas aeruginosa [7]; 64 µg/mL (≈ 145 µM) against Escherichia coli [8].
